{
  "source": "patent US5262426A",
  "about": "“N,N'-cycloalkyl/alkyl carboxamide 4H-imidazo-[4,5-b]pyridine compounds as PAF antagonists” (G. D. Searle & Co., priority 1993, dated 1993)",
  "key": {"human platelets": {"tested_on": "human platelets", "assay": "Assay B: Human Platelet Aggregation Inhibition (PAF-induced, platelet-rich plasma)", "type": "cell-based", "conditions": "37°", "procedure": "Assay B: Human Platelet Aggregation Inhibition\nA compound of the invention was evaluated for ability to inhibit PAF-induced aggregation of human platelets in a human-platelet-rich plasma. Venous blood was collected from donors who fasted for 8 hours and were instructed not to use antiinflammatory drugs for 2 weeks prior to blood draw. Blood was collected into syringes containing 0.1 ml of 3.8% [w/v] citrate and centrifuged in polypropylene tubes at 150xg for 20 minutes at room temperature. The platelet rich plasma [PRP] was collected and let sit for 20 minutes at room temperature. Platelet activating factor [PAF] was diluted in 0.9% NaCl with 0.25% bovine serum albumin. Silicon treated cuvettes with stir bars were placed in the 37° heating block of the platelet aggregometer [Bio/Data Corporation, Platelet Aggregation Profiler, Model PAP-4]. PRP and test compound were added to cuvettes and aggregation monitored for 10-15 seconds at 37° with stirring. PAF was added and aggregation monitored for an additional 3 minutes. Peak aggregation was considered the peak of the first aggregation wave usually 45-60 seconds after PAF addition. Inhibition of aggregation was determined by the following: 1- [(% aggregation in the presence of compound).div.(% maximal aggregation)]. A log/logit transformation was used to determine half maximal inhibitory concentration of a test compound [IC50 ]."}, "[1]": {"target": "T1, PAF receptor (human platelet membrane preparation) (Homo sapiens, UniProt P25105)", "T1 construct": "human platelet membrane preparation; tissue Lifesource, Inc. (Glenview, Ill.); host or cells: human packed platelets (washed, freeze-thaw broken, membrane pellet)", "T1 sequence (P25105 whole entry)": "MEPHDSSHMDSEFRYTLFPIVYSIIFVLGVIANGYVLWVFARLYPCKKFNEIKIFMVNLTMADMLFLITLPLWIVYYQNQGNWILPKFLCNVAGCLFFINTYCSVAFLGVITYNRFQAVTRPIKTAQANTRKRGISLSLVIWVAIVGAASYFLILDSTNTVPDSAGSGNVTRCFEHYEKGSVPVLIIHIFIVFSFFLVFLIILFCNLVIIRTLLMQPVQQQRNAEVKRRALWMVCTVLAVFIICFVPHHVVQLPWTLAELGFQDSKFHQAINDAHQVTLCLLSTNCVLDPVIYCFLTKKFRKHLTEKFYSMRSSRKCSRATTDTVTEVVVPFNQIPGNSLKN", "assay": "Assay A: Human Platelet Receptor Binding ([3H]PAF)", "conditions": "for IC50: 0.75 nM [3H]PAF, 30 minutes at 24° C", "procedure": "Assay A: Human Platelet Receptor Binding\nCompounds of the invention were evaluated for their ability to inhibit specific binding of [^3 H]PAF to human platelet membrane preparation. Human packed platelets were obtained from Lifesource, Inc. (Glenview, Ill.) and washed 3 times with 10 mM Trizma pH 7.0, 2 mM EDTA (dipotassium salt), 150 mM KCl and then once with 10 mM Trizma 7.4, 20 mM CaCl2. The platelets were broken by freezing in a dry ice-ethanol bath, followed by thawing in 24° C. water baths. The preparation was centrifuged (40,000 x g, 20 minutes, 4'C) and the pellet resuspended in 10 mM Trizma 7.4, 20 mM CaCl2, 5 mg/ml human albumin. Protein concentration in the platelet membrane preparation was determined by the Lowry method [0. H. Lowry et al, J. Biol. Chem., 193 265-275 (1951)]. Aliquots of the membrane preparation were stored at -70° C. Each preparation was characterized for PAF receptor number and dissociation constant (Kd). In binding assays 5 μl of test compound, solubilzed in DMSO, was added to polypropylene tubes along with 0.75 nM [^3 H]PAF and 200 mcl [0.075 nM] of membranes and 95 μl 10 mM Trizma 7.4, 20 mM CaCL2, 5 mg/ml human albumin. Tubes were incubated for 30 minutes at 24° C. The incubation was terminated by adding 4 ml of ice-cold 10 mM Trizma pH 7.4, 20 mM CaCl2 and 20 mg/ml BSA prior to vacuum filtration using Whatman GF/C filters. Filters were prepared and counted for a scintillation counter. All DPM values were corrected for background and isotope decay. Triplicate determinations for single doses were averaged. The amount of non-specific binding was subtracted from all dose averages, giving an amount of specific binding in all cases. The IC50 values for compounds of the invention determined by the Allfit program using percent displacement data. Allfit is a \"basic\" computer program for simultaneous curve fitting of a family of sigmoidal dose-response curves using the four parameter logistic equation."}, "PAF-induced aggregation": {"tested_on": "PAF-induced aggregation", "conditions": "human platelet-rich plasma; cited from earlier work"}, "[2]": {"tested_on": "arachidonic acid-induced platelet aggregation", "conditions": "cited from earlier work"}, "bronchoconstriction": {"tested_on": "bronchoconstriction", "conditions": "cited from earlier work"}, "thromboxane synthetase": {"tested_on": "thromboxane synthetase", "conditions": "cited from earlier work"}},
  "data": [
    {"compound": "COc1cc(Cn2cccc3ncnc2-3)ccc1C(=O)N(C1CCCC1)C1CC(C)CC(C)C1", "note": "(stereo not shown) [Example 4, N-cyclopentyl-N-(3,5-dimethylcyclohexyl)-4-[(4H-imidazo[4,5-b]pyridin-4-yl)methyl]-2-methoxybenzamide]", "values": [
      {"measurement": "IC50", "setting": "human platelets", "result": 58, "unit": "nM"},
      {"measurement": "IC50", "setting": "[1]", "result": 139, "unit": "nM"}
    ]},
    {"compound": "CN(C(=O)c1ccc(Cn2cnc3cnccc32)cc1)C1CCCCC1", "note": "[N-cyclohexyl-N-methyl-4-(1H-imidazo[4,5-c]pyridin-1-yl-methyl)benzamide]", "values": [
      {"measurement": "inhibition of PAF-induced aggregation", "setting": "PAF-induced aggregation", "result": "inhibitor of PAF-induced aggregation"}
    ]},
    {"compound": "CC(C)N(C(=O)c1ccc(Cn2cccc3ncnc2-3)cc1)C1CCCCC1", "note": "[Example 9, N-cyclohexyl-4-[(4H-imidazo[4,5-b]pyridin-4 yl)methyl]-N-(1-methylethyl)benzamide]", "values": [
      {"measurement": "IC50", "setting": "[1]", "result": 854, "unit": "nM"}
    ]},
    {"compound": "COc1cc(Cn2cccc3ncnc2-3)ccc1C(=O)N(C(C)C)C1CCCCC1", "note": "[Example 2, N-cyclohexyl-4-[(4H-imidazo[4,5-b]pyridin-4-yl)methyl]-2-methoxy-N-(1-methylethyl)benzamide]", "values": [
      {"measurement": "inhibition at 10 µM", "setting": "[1]; at 10 μM", "result": 40, "unit": "%"}
    ]},
    {"compound": "COc1cc(C(=O)N(C(C)C)C2CCCCC2)ccc1Cn1cccc2nc(CO)nc1-2", "note": "[Example 6, N-cyclohexyl-4-[[2-(hydroxymethyl)-4H-imidazo[4,5-b]pyridin-4-yl]methyl]-3 methoxy-N-(1-methylethyl)benzamide]", "values": [
      {"measurement": "IC50", "setting": "[1]", "result": 460, "unit": "nM"}
    ]},
    {"compound": "C(=Cc1ccccc1)Cn1ccnc1", "note": "[1-(3-phenyl-2-propenyl)1H-imidazole]", "values": [
      {"measurement": "inhibiting arachidonic acid-induced platelet aggregation", "setting": "[2]", "result": "effective in inhibiting"},
      {"measurement": "inhibiting bronchoconstriction", "setting": "bronchoconstriction", "result": "effective in inhibiting"},
      {"measurement": "inhibiting thromboxane synthetase", "setting": "thromboxane synthetase", "result": "effective in inhibiting"}
    ]},
    {"compound": "COc1cc(C(=O)N(C(C)C)C2CCCCC2)ccc1Cn1cccc2ncnc1-2", "note": "[Example 3, N-cyclohexyl-4-[(4H-imidazo[4,5-b]pyridin-4-yl)methyl]-3-methoxy-N-(1-methylethyl)benzamide]", "values": [
      {"measurement": "IC50", "setting": "[1]", "result": 643, "unit": "nM"}
    ]},
    {"compound": "COc1cc(C(=O)N(C2CCCC2)C2CCCC2)ccc1Cn1cccc2ncnc1-2", "note": "[Example 1, N,N-dicyclopentyl-4-[(4H-imidazo[4,5-b]pyridin-4-yl)methyl]-3-methoxybenzamide]", "values": [
      {"measurement": "IC50", "setting": "[1]", "result": 1050, "unit": "nM"}
    ]},
    {"compound": "COc1cc(C(=O)N(C(C)C)C2CCCCC2)ccc1Cn1cccc2nc(C)nc1-2", "note": "[Example 5, N-cyclohexyl-3-methoxy-N-(1-methylethyl)-4-[(2-methyl-4H-imidazo[4,5-b]pyridin-4 yl]methyl]benzamide]", "values": [
      {"measurement": "IC50", "setting": "[1]", "result": 323, "unit": "nM"}
    ]},
    {"compound": "COc1cc(C(=O)N(C(C)C)C2CCCCC2)ccc1Cn1cccc2nc(-c3ccccn3)nc1-2", "note": "[Example 7, N-cyclohexyl-3-methoxy-N-(1-methylethyl)-4-[[2-(2-pyridinyl)-4H-imidazo[4,5-b]pyridin-4-yl]methyl]benzamide]", "values": [
      {"measurement": "IC50", "setting": "[1]", "result": 732, "unit": "nM"}
    ]}
  ]
}
